Structures are written as SMILES. Square brackets hold non-standard residues; d marks the D form. Peptide text beside a SMILES is read from it. ξ: configuration not given here. Phe(4-tetrazol-5-yl) = N[C@@H](Cc1ccc(-c2nnn[nH]2)cc1)C(=O)O; Phe(4-COOH) = N[C@@H](Cc1ccc(C(=O)O)cc1)C(=O)O; pY = N[C@@H](Cc1ccc(OP(=O)(O)O)cc1)C(=O)O; Thr(3ξ) = CC(O)[C@H](N)C(=O)O

In the assay the target is Signal transducer and activator of transcription 3 (Mus musculus, UniProt P42227). The experiment in a line: Electrophoretic Mobility Shift Assay (EMSA). The conditions noted are these: pH 7.8; 22 °C. The protocol: His10-Stat3 was expressed in Sf9 cells from a baculovirus encoding the recombinant protein. A nuclear extract of the Sf9 cells was incubated with 32P-labeled high affinity c-fos sis inducible element (hSIE) either alone or in the presence of inhibitor. After 20 min of incubation, samples were electrophoresed on polyacrylamide gels. The gels were dried, exposed to a phosphorimager screen and scanned. IC50 values were derived from plots of spot intensity versus phosphopeptide concentration. The affinity of peptides to the SH2 domain is measured by the intensity of the radioactivity of the Stat3-DNA complex band in the electrophoresis gel.
Chain of Signal transducer and activator of transcription 3 (P42227 whole entry, the tested form may be a part): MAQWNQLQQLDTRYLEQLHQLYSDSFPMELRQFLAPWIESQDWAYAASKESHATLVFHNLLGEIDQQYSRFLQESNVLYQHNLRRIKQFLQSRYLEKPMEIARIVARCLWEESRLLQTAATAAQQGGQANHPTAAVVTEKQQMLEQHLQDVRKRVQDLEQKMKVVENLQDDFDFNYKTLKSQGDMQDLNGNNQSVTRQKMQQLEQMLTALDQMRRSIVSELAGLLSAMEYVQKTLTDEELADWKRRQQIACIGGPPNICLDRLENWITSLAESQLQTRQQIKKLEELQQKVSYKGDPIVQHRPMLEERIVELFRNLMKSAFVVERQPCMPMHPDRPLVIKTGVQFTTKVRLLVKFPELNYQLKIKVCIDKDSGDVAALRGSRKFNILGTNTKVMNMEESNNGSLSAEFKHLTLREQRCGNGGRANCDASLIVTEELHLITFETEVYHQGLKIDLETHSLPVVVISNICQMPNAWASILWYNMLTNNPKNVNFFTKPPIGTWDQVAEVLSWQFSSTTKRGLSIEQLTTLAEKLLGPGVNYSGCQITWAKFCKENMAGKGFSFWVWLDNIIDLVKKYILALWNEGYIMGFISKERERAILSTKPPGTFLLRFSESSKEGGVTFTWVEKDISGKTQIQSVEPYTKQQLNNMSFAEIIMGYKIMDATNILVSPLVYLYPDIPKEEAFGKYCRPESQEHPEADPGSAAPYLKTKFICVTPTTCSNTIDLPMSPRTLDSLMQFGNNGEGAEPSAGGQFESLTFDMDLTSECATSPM
As a reminder, the IC50 is the point on the concentration scale where inhibition reaches its midpoint. As to `CC(=O)N[C@@H](Cc1ccc(OP(=O)(O)O)cc1)C(=O)N[C@@H](CCC(N)=O)C(=O)N[C@@H](CCCCN)C(=O)N[C@@H](CCC(N)=O)C(=O)N[C@H](C(=O)N[C@@H](CCCN=C(N)N)C(N)=O)C(C)O` (some centres undefined) [Y(p)QKQTR] (Ac-[pY]QKQ[Thr(3ξ)]R-NH2), the IC50 is 8 µM.
For `CC(=O)N[C@@H](Cc1ccc(OP(=O)(O)O)cc1)C(=O)N[C@@H](C)C(=O)N1CCC[C@H]1C(=O)N[C@@H](CCC(N)=O)C(=O)N[C@H](C(=O)N[C@H](C(N)=O)C(C)C)C(C)O` (some centres undefined) [Y(p)APQTV] (Ac-[pY]APQ[Thr(3ξ)]V-NH2), the IC50 is 1.6 µM.
As for `CC(=O)N[C@@H](Cc1ccc(OP(=O)(O)O)cc1)C(=O)N[C@@H](CC(C)C)C(=O)N1CCC[C@H]1C(N)=O` [Y(p)LP] (Ac-[pY]-Leu-Pro-NH2), the IC50 is greater than 6 µM.
Then `CC(=O)N[C@@H](Cc1ccc(OP(=O)(O)O)cc1)C(=O)N[C@@H](CO)C(=O)N[C@H](C(=O)N[C@H](C(=O)N[C@H](C(=O)N[C@@H](Cc1cnc[nH]1)C(N)=O)C(C)C)C(C)C)C(C)O` (some centres undefined) [Y(p)STVVH] (Ac-[pY]S[Thr(3ξ)]VVH-NH2), with greater than 150 µM; and `CC(=O)N[C@@H](Cc1ccc(OP(=O)(O)O)cc1)C(=O)N[C@@H](CC(C)C)C(=O)N[C@@H](CCCN=C(N)N)C(=O)N[C@@H](CS)C(=O)N[C@@H](CC(=O)O)C(=O)N[C@@H](CO)C(N)=O` [(3S)-3-[(2R)-2-[(2S)-5-carbamimidamido-2-[(2S)-2-[(2S)-2-acetamido-3-[4-(phosphonooxy)phenyl]propanamido]-4-methylpentanamido]pentanamido]-3-sulfanylpropanamido]-3-{[(1S)-1-carbamoyl-2-hydroxyethyl]carbamoyl}propanoic acid] (Ac-[pY]LRCDS-NH2), with 80 µM.
Then `CC(=O)N[C@@H](Cc1ccc(OP(=O)(O)O)cc1)C(=O)N[C@@H](CC(C)C)C(=O)N1CCC[C@H]1C(=O)N[C@@H](CC(N)=O)C(=O)N[C@H](C(=O)N[C@H](C(N)=O)C(C)C)C(C)O` (stereo partly drawn) [4-[(2S)-2-{[(2S)-1-[(2S)-2-{[(1S)-2-carbamoyl-1-{[(1S,2S)-1-{[(1S)-1-carbamoyl-2-methylpropyl]carbamoyl}-2-hydroxypropyl]carbamoyl}ethyl]carbamoyl}pyrrolidin-1-yl]-4-methyl-1-oxopentan-2-yl]carbamoyl}-2-acetamidoethyl]phenoxyphosphonic acid] (Ac-[pY]LPN[Thr(3ξ)]V-NH2), with 2 µM; and `CC(=O)N[C@@H](Cc1ccc(OP(=O)(O)O)cc1)C(=O)N[C@@H](CC(C)C)C(=O)N1CCC[C@H]1C(=O)N[C@@H](CCC(N)=O)C(=O)N[C@H](C(=O)N[C@@H](C)C(N)=O)C(C)O` (stereo partly drawn) [4-[(2S)-2-{[(2S)-1-[(2S)-2-{[(1S)-3-carbamoyl-1-{[(1S,2S)-1-{[(1S)-1-carbamoylethyl]carbamoyl}-2-hydroxypropyl]carbamoyl}propyl]carbamoyl}pyrrolidin-1-yl]-4-methyl-1-oxopentan-2-yl]carbamoyl}-2-acetamidoethyl]phenoxyphosphonic acid] (Ac-[pY]LPQ[Thr(3ξ)]A-NH2), with 0.4 µM.
For `CC(=O)N[C@@H](Cc1ccc(OP(=O)(O)O)cc1)C(=O)N[C@@H](CC(C)C)C(=O)N[C@@H](C)C(=O)N[C@@H](CCC(N)=O)C(=O)N[C@H](C(=O)N[C@H](C(N)=O)C(C)C)C(C)O` (stereo partly drawn) [4-[(2S)-2-{[(1S)-1-{[(1S)-1-{[(1S)-3-carbamoyl-1-{[(1S,2S)-1-{[(1S)-1-carbamoyl-2-methylpropyl]carbamoyl}-2-hydroxypropyl]carbamoyl}propyl]carbamoyl}ethyl]carbamoyl}-3-methylbutyl]carbamoyl}-2-acetamidoethyl]phenoxyphosphonic acid] (Ac-[pY]LAQ[Thr(3ξ)]V-NH2) the value was 4 µM; for `CC(=O)N[C@@H](Cc1ccc(OP(=O)(O)O)cc1)C(=O)N[C@@H](CC(C)C)C(=O)N1CCC[C@H]1C(=O)N[C@@H](CCC(N)=O)C(N)=O` (Ac-[pY]LPQ-NH2), 1 µM.
In the case of `CC(=O)N[C@@H](Cc1ccc(CP(=O)(O)O)cc1)C(=O)N[C@@H](CC(C)C)C(=O)N1CCC[C@H]1C(=O)N[C@@H](CCC(N)=O)C(=O)N[C@H](C(=O)N[C@H](C(N)=O)C(C)C)C(C)O` (stereo partly drawn) [({4-[(2S)-2-{[(2S)-1-[(2S)-2-{[(1S)-3-carbamoyl-1-{[(1S,2S)-1-{[(1S)-1-carbamoyl-2-methylpropyl]carbamoyl}-2-hydroxypropyl]carbamoyl}propyl]carbamoyl}pyrrolidin-1-yl]-4-methyl-1-oxopentan-2-yl]carbamoyl}-2-acetamidoethyl]phenyl}methyl)phosphonic acid], the IC50 is 8 µM.
Then `CC(=O)N[C@@H](Cc1ccc(OP(=O)(O)O)cc1)C(=O)N[C@@H](CC(C)C)C(=O)N1CCC[C@H]1C(=O)N[C@@H](C)C(=O)N[C@H](C(=O)N[C@H](C(N)=O)C(C)C)C(C)O` (some centres undefined) [Y(p)LPATV] (Ac-[pY]LPA[Thr(3ξ)]V-NH2), with greater than 6 µM; and `CCC(C)[C@H](NC(=O)[C@H](Cc1ccc(OP(=O)(O)O)cc1)NC(C)=O)C(=O)N[C@@H](CC(N)=O)C(=O)N[C@@H](CCC(N)=O)C(=O)N[C@@H](CO)C(=O)N[C@H](C(N)=O)C(C)C` (some centres undefined) [Y(p)INQSV], with 30 µM; and `CC(=O)N[C@@H](Cc1ccc(OP(=O)(O)O)cc1)C(=O)N[C@@H](CC(C)C)C(=O)N1CCC[C@H]1C(=O)N[C@@H](CCC(N)=O)C(=O)N[C@H](C(N)=O)C(C)O` (stereo partly drawn) [4-[(2S)-2-{[(2S)-1-[(2S)-2-{[(1S)-3-carbamoyl-1-{[(1S,2S)-1-carbamoyl-2-hydroxypropyl]carbamoyl}propyl]carbamoyl}pyrrolidin-1-yl]-4-methyl-1-oxopentan-2-yl]carbamoyl}-2-acetamidoethyl]phenoxyphosphonic acid] (Ac-[pY]LPQ[Thr(3ξ)]-NH2), with 0.6 µM.
For `CC(=O)N[C@@H](Cc1ccc(OP(=O)(O)O)cc1)C(=O)N[C@@H](CO)C(=O)N[C@@H](CC(=O)O)C(=O)NCC(=O)N[C@@H](CC(N)=O)C(=O)N[C@@H](Cc1ccccc1)C(N)=O` [Y(p)SDGNF] (Ac-[pY]SDGNF-NH2) the value was greater than 150 µM; for `CC(=O)N[C@@H](Cc1ccc(-c2nnn[nH]2)cc1)C(=O)N[C@@H](CC(C)C)C(=O)N1CCC[C@H]1C(=O)N[C@@H](CCC(N)=O)C(=O)N[C@H](C(=O)N[C@H](C(N)=O)C(C)C)C(C)O` (stereo partly drawn) [(2S)-N-[(1S,2S)-1-{[(1S)-1-carbamoyl-2-methylpropyl]carbamoyl}-2-hydroxypropyl]-2-{[(2S)-1-[(2S)-2-[(2S)-2-acetamido-3-[4-(2H-1,2,3,4-tetrazol-5-yl)phenyl]propanamido]-4-methylpentanoyl]pyrrolidin-2-yl]formamido}pentanediamide] (Ac-[Phe(4-tetrazol-5-yl)]LPQ[Thr(3ξ)]V-NH2), greater than 6 µM; for `CC(=O)N[C@@H](Cc1ccc(C(=O)O)cc1)C(=O)N[C@@H](CC(C)C)C(=O)N1CCC[C@H]1C(=O)N[C@@H](CCC(N)=O)C(=O)N[C@H](C(=O)N[C@H](C(N)=O)C(C)C)C(C)O` (stereo partly drawn) [4-[(2S)-2-{[(2S)-1-[(2S)-2-{[(1S)-3-carbamoyl-1-{[(1S,2S)-1-{[(1S)-1-carbamoyl-2-methylpropyl]carbamoyl}-2-hydroxypropyl]carbamoyl}propyl]carbamoyl}pyrrolidin-1-yl]-4-methyl-1-oxopentan-2-yl]carbamoyl}-2-acetamidoethyl]benzoic acid] (Ac-[Phe(4-COOH)]LPQ[Thr(3ξ)]V-NH2), greater than 6 µM.
Then `CC(=O)N[C@@H](Cc1ccc(OP(=O)(O)O)cc1)C(=O)N[C@@H](CC(C)C)C(=O)N1CCC[C@H]1C(=O)N[C@@H](CCC(=O)O)C(=O)N[C@H](C(=O)N[C@H](C(N)=O)C(C)C)C(C)O` (stereo partly drawn) [(4S)-4-{[(1S,2S)-1-{[(1S)-1-carbamoyl-2-methylpropyl]carbamoyl}-2-hydroxypropyl]carbamoyl}-4-{[(2S)-1-[(2S)-2-[(2S)-2-acetamido-3-[4-(phosphonooxy)phenyl]propanamido]-4-methylpentanoyl]pyrrolidin-2-yl]formamido}butanoic acid] (Ac-[pY]LPE[Thr(3ξ)]V-NH2), with greater than 6 µM; and `CC(=O)N[C@@H](Cc1ccc(OP(=O)(O)O)cc1)C(=O)N[C@@H](CC(C)C)C(=O)N[C@@H](CCCCN)C(=O)N[C@H](C(=O)N[C@@H](CCCCN)C(=O)N[C@@H](Cc1ccccc1)C(N)=O)C(C)O` (stereo partly drawn) [4-[(2S)-2-{[(1S)-1-{[(1S)-5-amino-1-{[(1S,2R)-1-{[(1S)-5-amino-1-{[(1S)-1-carbamoyl-2-phenylethyl]carbamoyl}pentyl]carbamoyl}-2-hydroxypropyl]carbamoyl}pentyl]carbamoyl}-3-methylbutyl]carbamoyl}-2-acetamidoethyl]phenoxyphosphonic acid] (Ac-[pY]LK[Thr(3ξ)]KF-NH2), with 20 µM.
As to `CC(=O)N[C@@H](Cc1ccc(OP(=O)(O)O)cc1)C(=O)N[C@@H](CC(C)C)C(=O)N1CCC[C@H]1C(=O)N[C@@H](CCC(N)=O)C(=O)N[C@H](C(=O)N[C@H](C(N)=O)C(C)C)C(C)O` (stereo partly drawn) [4-[(2S)-2-{[(2S)-1-[(2S)-2-{[(1S)-3-carbamoyl-1-{[(1S,2S)-1-{[(1S)-1-carbamoyl-2-methylpropyl]carbamoyl}-2-hydroxypropyl]carbamoyl}propyl]carbamoyl}pyrrolidin-1-yl]-4-methyl-1-oxopentan-2-yl]carbamoyl}-2-acetamidoethyl]phenoxyphosphonic acid], the IC50 came to 0.15 µM.

The record behind these values is BindingDB's records for doi:10.1016/S0960-894X(02)01050-8 (The University of Texas At Houston, 2003).
